According to patent publication US20070161634A1, “Compounds as CCR5 antagonists” (priority 2004, published 2007):
Like-named read-outs stand apart in the source and are kept apart here.

How the values were obtained:
MTT cytotoxicity assay = format: cell-based; conditions: human, peripheral blood mononuclear cells (PBMC) and Jurkat cells; MTT
Method: (§1) C. MTT Cytotoxicity Assay
(§2) Cells were prepared as single cell suspension, and cell densities were adjusted according to the cell size and cell features. Cells were inoculated with 100 ul culture media into 96 well plates, and incubated in 37° C. incubator (5% CO2, saturated humidity). The seeding densities were as follows: peripheral blood monouclear cells (PBMC) 10^5 cells /well, Jurket 4×10^4 cells/well. 24 h after cell inoculation, the compounds to be tested were added and incubated with cells. 48 h after inoculation, 10 μl MTT (Sigma, USA, 5 mg/ml, diluted with PBS and stored at −20° C.) was added to each well, and incubated for another 4 h in 37° C. incubator. Then add 50 μl formazane solvent (10%SDS-5%isopropanol−0.01M HCl) and incubate overnight. Determine OD570/OD630 nm at spectrophotometer, and calculate CC50 according to the inhibition curve.

[1] = system: peripheral blood monouclear cells (PBMC), Jurket; experiment: MTT cytotoxicity assay; format: cell-based; conditions: at 10,000 nM
Method: as §1, §2

CXCR4 = CXCR4 (Homo sapiens, UniProt P61073); experiment: effects on the activation of CXCR4 receptor; conditions: at the concentration of 10,000 nM
CCR5 receptor = CCR5 receptor (Homo sapiens, UniProt P51681); experiment: [35S]GTPγS binding assay; format: biochemical
Text: [^35S]GTPγS binding assay
CCR5 receptor binds to agonists and changes its conformation which enables it to interact with and activate G protein, a heterotrimer which consists of subunits α and βγ. The capability of G protein α subunit binding to GTP depends on the effect between CCR5 and the agonists, therefore, the amount of α subunit bound GTP should reflect the agonists activity on the CCR5 receptor. In the GTPγS binding assay, [^35S]GTPγS is resistant to the GTPase activity of α subunit, and thus cannot be hydrolyzed when bound to G protein, making it accurate to reflect the receptor activation. Radiolabled [^35S]GTPγS can also serve as marker for detection in place of GTP. When CCR5 is not activated, α subunit is bound to GDP, but when CCR5 is activated, α subunit binds to [^35S]GTPγS, therefore, measurement of the number of the α subunit-bound ^35S-GTPγS can reflect the CCR5 activation level.
CCR5 activation of G-protein was measured according to assays below:
Permanent cell line expressing CHO of CCR5 (available at Euroscreen S.A., Belgium) was lysed by lysis buffer (5 mM Tris HCl, pH 7.5, 5 mM EDTA and 5 mM EGTA), and centrifuged at 15,000×g for 10 min. Cell membrane was resuspended with reaction buffer (5 mM Tris HCl, pH 7.5, 5 mM MgCl2, 1 mM EGTA, 100 mM NaCl), and protein concentrations were determined using Bioford assay (Bio-rad). [^35S]GTPγS binding assay was performed in the 100 μl reaction buffer system, which contains 10 ug membrane protein, 40 uM GDP and 0.5 nM [^35S]GTPγS (1200 Ci/mmol). After adding the study compounds, the system was vortexed and placed on ice for 5 min, and then CCR5 agonist was added (10 nM RANTES or 30 nM MIP1β). After vortexing, the reaction tubes were incubated at 30° C. for 1 h. After the reaction was complete, the reaction tubes were placed on ice and diluted with PBS to terminate the reaction. After suction through the GF/C filter membrane under vacuum, the membrane bound radioactivity was measured with a scintillation counter. Basal binding was measured without presence of agonist, and non-specific binding was measured in the presence of 10 mM nonisotopical GTPγS. The binding ratio of [^35S]GTPγS was calculated according to 100×[c.p.m.sample−c.p.m. non-specific]/[c.p.m.basal−c.p.m. non-specific]. IC50 was the compound concentration at which half of the [^35S]GTPγS binding induced by 10 nM RANTES or 30 nM MIP1β was inhibited, and the value was obtained from the concentration-inhibition curve (6-7 points for concentrations of each compound).

CCR1 = target: T1, CCR1 (Homo sapiens, UniProt P32246); experiment: effects on the activation of CCR1 receptor; conditions: at the concentration of 10,000 nM
T1 sequence (P32246 1-355): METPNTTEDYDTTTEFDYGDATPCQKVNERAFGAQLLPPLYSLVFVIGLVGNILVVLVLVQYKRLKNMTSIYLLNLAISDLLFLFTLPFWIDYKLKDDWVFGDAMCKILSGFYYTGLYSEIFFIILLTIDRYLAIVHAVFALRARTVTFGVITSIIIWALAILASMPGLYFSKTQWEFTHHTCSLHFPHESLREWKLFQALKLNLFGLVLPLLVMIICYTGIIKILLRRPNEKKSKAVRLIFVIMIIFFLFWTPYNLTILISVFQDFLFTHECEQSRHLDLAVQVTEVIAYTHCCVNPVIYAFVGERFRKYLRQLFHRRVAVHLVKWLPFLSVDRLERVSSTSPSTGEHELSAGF

[2] = system: HEK 293 cells expressing human CCR5 receptors (293CCR5); experiment: Chemotaxis assay; format: cell-based; conditions: chemotaxis caused by 10 nM RANTES, read-out: IC50 on cell chemotaxis
Method: The procedures were as follows:
The assay is performed with a 48 well plate (AP48, Neuroprobe Inc., USA) and 8 uM filter membrane (25×80 mm). The filter membrane was pre-immersed in rat tail collagen for at least 2 h. The filter membrane was taken out and dried on a super-clean bench, then the filter membrane was immersed in 0.1% BSA-MEM. HEK 293 cells expressing human CCR5 receptors (293CCR5) (available at Euroscreen S.A., Belgium) were digested with D.T. for 1 min, and pelleted by centrifugation at 200 g. Resuspend the cells in 0.1% BSA-MEM, count and dilute the cell suspension to 3×10^6 cells/ml. Fill each well with 26.5 μl tll of a chemokine dilution or 1% BSA MEM, place the filter membrane and cover a lid on the well, add 50 μl of the cells suspension to each well. When testing the compound antagonism, the compounds to be tested were added to the cell suspension, and pre-incubated at 37° C. for 20 min. Then place the plate in 37° C. incubator, and incubate for 6 h. Take out of the filter membrane and remove the cells in the well, fix the filter membrane in 4% polyformaldehyde solution at 4° C. overnight. The filter membrane was taken out the next day and stained with crystal violet for at least 2 h, then wash with water and allow it to dry. Scan the filter membrane, and calculate the shades with Scion Image. […]

water solubility = format: physicochemical; conditions: mesylate compared with II-a-a
[3] = Table I, [35S]GTPγS binding, read-out: IC50
[4] = [35S]GTPγS binding initiated by 10 nM RANTES, read-out: IC50(nM) ± S.E.

CCR5 receptor, sequence (P51681 whole entry): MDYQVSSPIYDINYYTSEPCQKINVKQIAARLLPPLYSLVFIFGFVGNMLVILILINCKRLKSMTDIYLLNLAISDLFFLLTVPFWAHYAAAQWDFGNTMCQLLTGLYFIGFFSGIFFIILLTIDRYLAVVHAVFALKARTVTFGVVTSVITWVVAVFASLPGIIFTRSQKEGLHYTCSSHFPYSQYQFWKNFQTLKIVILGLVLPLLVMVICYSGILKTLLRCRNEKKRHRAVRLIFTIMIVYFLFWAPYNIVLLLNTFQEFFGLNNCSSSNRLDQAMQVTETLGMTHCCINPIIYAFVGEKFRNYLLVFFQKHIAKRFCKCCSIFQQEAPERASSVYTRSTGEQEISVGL
CXCR4, sequence (P61073 whole entry, species assumed): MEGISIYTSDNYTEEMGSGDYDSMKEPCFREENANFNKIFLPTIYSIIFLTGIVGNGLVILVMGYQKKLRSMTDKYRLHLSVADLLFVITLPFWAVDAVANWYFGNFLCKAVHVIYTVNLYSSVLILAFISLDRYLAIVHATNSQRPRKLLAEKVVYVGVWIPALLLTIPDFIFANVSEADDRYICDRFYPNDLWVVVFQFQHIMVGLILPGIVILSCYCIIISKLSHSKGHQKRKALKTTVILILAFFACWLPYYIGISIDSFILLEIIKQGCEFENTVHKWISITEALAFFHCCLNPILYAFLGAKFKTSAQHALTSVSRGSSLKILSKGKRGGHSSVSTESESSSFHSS

Row | Structure (SMILES) | CC50 at 24 h (MTT cytotoxicity assay) [nM] | cytotoxicity on cells [1] | activation or antagonism of CXCR4 receptor (CXCR4) | IC50 (CCR5 receptor; [3]) [nM] | IC50 (CCR5 receptor; [4]) [nM] | activation or antagonism of CCR1 receptor (CCR1) | IC50 [2] [nM] | water solubility increase (water solubility) | IC50 (CCR5 receptor; b360, read-out: IC50) [nM]
1 | C=CCN(C(=O)OCc1ccc([N+](=O)[O-])cc1)C1CCN(CC2CN(C(=O)c3ccccc3I)CC2(O)c2ccccc2)CC1 (stereo not drawn) [III-a-c, 4-nitrobenzyl allyl(1-((4-hydroxy-1-(2-iodobenzoyl)-4-phenylpyrrolidin-3-yl)methyl)piperidin-4-yl)carbamate] | ~30000 | no significant cytotoxicity | do not activate or antagonize | 24.9 ± 8.8 | 24.9 ± 8.8 | do not activate or antagonize |  |  | 
2 | C=CCN(C(=O)OCc1ccc([N+](=O)[O-])cc1)C1CCN(CC2CN(C(=O)c3cccc4ccccc34)CC2(O)c2ccccc2)CC1 (stereo not drawn) [III-a-d, 4-nitrobenzyl 1-((1-(1-naphthoyl)-4-hydroxy-4-phenylpyrrolidin-3-yl)methyl)piperidin-4-yl(allyl)carbamate] | ~30000 | no significant cytotoxicity | do not activate or antagonize | 26.8 ± 2 | 26.8 ± 2 | do not activate or antagonize |  |  | 
3 | C=CCN(C(=O)OCc1ccc([N+](=O)[O-])cc1)C1CCN(CC2CN(C(=O)C3CCCC3)CC2(O)c2ccccc2)CC1 (stereo not drawn) [III-a-e, 4-nitrobenzyl allyl(1-((1-(cyclopentanecarbonyl)-4-hydroxy-4-phenylpyrrolidin-3-yl)methyl)piperidin-4-yl)carbamate] | ~30000 | no significant cytotoxicity | do not activate or antagonize | 5.3 ± 0.6 | 5.3 ± 0.6 | do not activate or antagonize | ~30 |  | 
4 | C=CCN(C(=O)OCc1ccc([N+](=O)[O-])cc1)C1CCN(CC2CN(C(=O)C3CCCCC3)CC2(O)c2ccccc2)CC1 (stereo not drawn) [III-a-f, 4-nitrobenzyl allyl(1-((1-(cyclohexanecarbonyl)-4-hydroxy-4-phenylpyrrolidin-3-yl)methyl)piperidin-4-yl)carbamate] | ~30000 | no significant cytotoxicity | do not activate or antagonize | 7.3 | 7.3 ± 0.6 | do not activate or antagonize |  |  | 
5 | CCN(C(=O)OCc1ccccc1)C1CCN(CC2CN(Cc3ccccc3)CC2(O)c2ccccc2)CC1 (stereo not drawn) [mesylate of II-a-a] |  |  |  |  |  |  |  | about 10 fold | 342 ± 72.5
